Experiments:
[1] = tested on: phyB-9 mutant plants; test: Primary root length in the presence of 15 μM 5-MT, phyB-9 plants overexpressing MYC2 variants; assay type: in vivo, Arabidopsis thaliana; conditions: 14-day-old seedlings, overexpression in phyB-9, normalized to the same genotype without 5-MT
Protocol: Primary root length in the presence of 15 μM 5-MT was evaluated for 14-day-old seedlings of non-transgenic (NT) phyB-9 mutant plants or phyB-9 mutant plants that overexpressed either wild-type (WT) MYC2 or a MYC2^D105N/E165K mutant allele that harbors two point mutations (D105N and E165K) that prevent JAZ binding. Primary root length was determined as the root length of a given genotype grown in the presence of 15 μM 5-MT normalized to the root length of the same genotype grown in the absence of 5-MT.

[2] = tested on: Arabidopsis; test: Resistance to 5-methyl tryptophan (5-MT) of transgenic Arabidopsis overexpressing MYC transcription factors; assay type: in vivo, Arabidopsis thaliana; conditions: for 5-MT resistance: overexpression from the 35S promoter, phyB mutant background, 50 μM 5-methyl-tryptophan, 3 weeks, preliminary results
Protocol: Functional analysis of these and other MYC^D transcription factors in planta was performed by overexpressing the transcription factors in Arabidopsis with subsequent testing of the resulting transgenic lines for increased resistance to 5-methyl tryptophan (5-MT), a toxic analog of the amino acid tryptophan.

[3] = target: T1, MED25 (Arabidopsis thaliana, UniProt Q7XYY2); test: Yeast two-hybrid analysis of MED25 (bait) interaction with wild-type MYC3 and MYC3 point mutants (prey); assay type: binding; conditions: MYC3 variant prey
T1 construct: expressed in transfected cells; host or cells: yeast (two-hybrid)
T1 sequence (Q7XYY2 1-836): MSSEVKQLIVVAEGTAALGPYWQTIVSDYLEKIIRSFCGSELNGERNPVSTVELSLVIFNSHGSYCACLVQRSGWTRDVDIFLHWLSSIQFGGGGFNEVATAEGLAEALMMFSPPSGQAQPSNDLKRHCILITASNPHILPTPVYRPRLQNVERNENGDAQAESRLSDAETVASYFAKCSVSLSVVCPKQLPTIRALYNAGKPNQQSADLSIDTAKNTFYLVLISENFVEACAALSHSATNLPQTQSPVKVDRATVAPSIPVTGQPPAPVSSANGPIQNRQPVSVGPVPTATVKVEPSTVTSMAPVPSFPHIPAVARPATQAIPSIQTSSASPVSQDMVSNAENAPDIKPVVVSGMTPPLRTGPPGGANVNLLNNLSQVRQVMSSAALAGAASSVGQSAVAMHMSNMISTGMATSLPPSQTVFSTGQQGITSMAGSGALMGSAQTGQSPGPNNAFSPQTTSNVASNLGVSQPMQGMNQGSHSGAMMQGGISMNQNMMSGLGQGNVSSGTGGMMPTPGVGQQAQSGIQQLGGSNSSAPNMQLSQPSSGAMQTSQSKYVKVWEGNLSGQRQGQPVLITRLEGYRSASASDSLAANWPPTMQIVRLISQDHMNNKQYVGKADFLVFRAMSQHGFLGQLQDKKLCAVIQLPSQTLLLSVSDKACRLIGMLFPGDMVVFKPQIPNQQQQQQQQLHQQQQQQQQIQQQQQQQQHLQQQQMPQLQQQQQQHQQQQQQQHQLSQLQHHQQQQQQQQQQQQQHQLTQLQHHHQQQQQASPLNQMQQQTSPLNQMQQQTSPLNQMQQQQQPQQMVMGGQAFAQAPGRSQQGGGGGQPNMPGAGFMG
Protocol: (§1) The interactions of mutants MYC3^L152A and MYC3^E148A/M155A with JAZ10.4 and MED25 was evaluated using yeast two-hybrid analyses to visualize MED25 and JAZ10.4 (bait) interactions with wild-type MYC3 and MYC3 point mutants (prey).

[4] = target: T2, JAZ10.4 (Arabidopsis thaliana, UniProt Q93ZM9); test: Yeast two-hybrid analysis of JAZ10.4 (bait) interaction with wild-type MYC3 and MYC3 point mutants (prey); assay type: binding; conditions: JAZ10.4 bait (CMID, no Jas motif), MYC3 variant prey
T2 construct: expressed in transfected cells; host or cells: yeast (two-hybrid)
T2 sequence (Q93ZM9 1-167 isoform Q93ZM9-3): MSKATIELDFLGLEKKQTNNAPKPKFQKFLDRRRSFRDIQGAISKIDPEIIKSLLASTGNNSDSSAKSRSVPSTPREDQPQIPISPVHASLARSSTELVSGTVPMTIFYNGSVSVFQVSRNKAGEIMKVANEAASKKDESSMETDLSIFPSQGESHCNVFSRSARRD
Protocol: The structural information from the MYC3-CMID complex was used to generate site-directed mutants of MYC3 that have reduced interaction with the JAZ10.4 splice variant, which contains a CMID but not a Jas motif (Chung and Howe 2009). Several promising mutants were made.
as §1

[5] = tested on: JAZ proteins; conditions: literature (Goossens et al., 2015; Smolen et al., 2002); cited from earlier work

wild type MYC2: Arabidopsis thaliana MYC2 sequence, SEQ ID NO:1 [reference compound]
primary root length [1]: improves primary root length

tomato MYC2 D132N: tomato (Solanum lycopersicum) MYC2 protein with SEQ ID NO:19 modified to have a D132N mutation
resistance to 5-MT ([2]; tomato MYC2 variant overexpressed in Arabidopsis, data not shown): confers resistance

wild-type MYC3: Arabidopsis thaliana MYC3 sequence, SEQ ID NO:3
5-MT resistance [2]: not

MYC3^L152A
MED25 interaction [3]: still interacted
JAZ10.4 interaction [4]: strongly reduced

MYC2^D105N/E165K: MYC2 mutant allele that harbors two point mutations (D105N and E165K) that prevent JAZ binding
primary root length [1]: best primary root growth

MYC3^D94N: dominant MYC3 variant (atr2D allele), Asp-to-Asn missense mutation in the JAZ-interacting domain
5-MT resistance [2]: confers 5-MT resistance
interaction with most JAZ proteins [5]: fail to interact

MYC3^E148A/M155A
MED25 interaction [3]: still interacted
JAZ10.4 interaction [4]: strongly reduced

From patent US12428651B2, “Transcription factors to improve resistance to environmental stress in plants” (Board of Trustees of Michigan State University, priority 2016, dated 2025)
